From patent US9975869B2 (Sphaera Pharma Pvt. Ltd., priority 2013, dated 2018) come the findings set out here.

The test system of this assay is AMPK. The experiment in a line: AMPK activation potential, cell based ELISA (Phospho-AMPKα Thr172) in Hep G2 cells. To be noted: 10 nm concentration; Hep G2 liver cells; % activity with DMSO control as 100%; 30 min incubation for Epicatechin analogs. Here is the method: Testing of Compounds for Their AMPK Activation Potential
AMPK activation potential of the compounds was evaluated using cell based ELISA. Hepatoma (Hep G2) liver cells were maintained in a T 75 culture flask-containing 25 mM DMEM+10% fetal calf serum. The cells were maintained in a T 75 culture flask-containing medium (DMEM+10% fetal calf serum). On reaching a confluence of 70 to 80%, the cells were seeded in a 96 well plate at a density of 40,000 cells per well in 25 mM DMEM+10% FCS medium. The plates were then incubated at 37° C. with 5% CO2 for 24 hours. Various concentrations of drugs were prepared in DMSO and diluted to required concentration with the medium and incubated at 37° C. with 5% CO2 for 30 min and 1 h for Epicatechin analogs and 11-BHP analogs respectively. Metformin was used as positive control. Cells were fixed with 4% formaldehyde for 30 minutes at room temperature and washed three times with PBS containing 0.1% Triton X-100. Endogenous peroxidase was quenched with 1% H2O2 in PBS-T (0.1% Tween 20) for 30 minutes and washed three times in PBS-T. Cells were blocked with 1% BSA in PBS-T for 1 hour. The cells were incubated with 1:1000 dilution primary antibody (Phospho-AMPKα (Thr172) Rabbit mAb, Cell Signaling in PBS-T containing 5% BSA at 4° C. overnight. The cells were then washed three times with PBS-T for 5 minutes and incubated with 1:1000 dilution secondary antibody (Anti-rabbit IgG, HRP-linked Antibody, Cell Signaling) in PBS-T with 1% BSA for 1 hour at RT. Cells were washed three times with PBS-T for 5 minutes The cells were incubated with 100 μl TMB substrate solution for 30 minutes and the reaction was stopped with 100 μl of 2N H2SO4. Then the plate was read at 450 nm using ELISA plate reader and absorbance recorded. % activity was calculated using DMSO control as 100%. All compounds of the present invention, as exemplified and encompassed are found to be active.
On to `COC(=O)CNC(=O)O[C@@H]1Cc2c(O)cc(O)cc2O[C@@H]1c1ccc(O)c(O)c1` [Compound 1056, methyl ((((2R,3R)-2-(3,4-dihydroxyphenyl)-5,7-dihydroxychroman-3-yl)oxy)carbonyl)glycinate], for which the “% pAMPK(at 10 nm)” value stood at 112%.

`COC(=O)Oc1cc(OC(=O)OC)c2c(c1)O[C@H](c1ccc(O)c(O)c1)[C@H](O)C2` [Compound 1058, (2R,3R)-2-(3,4-dihydroxyphenyl)-3-hydroxychromane-5,7-diyl dimethyl bis(carbonate)]: the “% pAMPK(at 10 nm)” value worked out at 117%.

With `O=C(NCc1ccccc1)Oc1ccc([C@H]2Oc3cc(O)cc(O)c3C[C@H]2O)cc1OC(=O)NCc1ccccc1` [Compound 1059, 4-((2R,3R)-3,5,7-trihydroxychroman-2-yl)-1,2-phenylene bis(benzylcarbamate)], the “% pAMPK(at 10 nm)” value came out at 144%.

Turning to `CC(C)COC(=O)Oc1cc(OC(=O)OCC(C)C)c2c(c1)O[C@H](c1ccc(OC(=O)OCc3ccccc3)c(OC(=O)OCc3ccccc3)c1)[C@H](O)C2` [Compound 1060, dibenzyl (4-((2R,3R)-3-hydroxy-5,7-bis((isobutoxycarbonyl)oxy)chroman-2-yl)-1,2-phenylene) bis(carbonate)], the “% pAMPK(at 10 nm)” value was 110%.

Take `CCCCCCCC(=O)Oc1cc(O)cc2c1C[C@@H](O)[C@@H](c1ccc(O)c(O)c1)O2` [Compound 1064, (2R,3R)-2-(3,4-dihydroxyphenyl)-3,7-dihydroxychroman-5-yl octanoate]: the “% pAMPK(at 10 nm)” value was 110%.

For `COC(=O)Oc1cc(OC(=O)OC)c2c(c1)O[C@H](c1ccc(OC(=O)OCc3ccccc3)c(OC(=O)OCc3ccccc3)c1)[C@H](O)C2` [Compound 1066, dibenzyl (4-((2R,3R)-3-hydroxy-5,7-bis((methoxycarbonyl)oxy)chroman-2-yl)-1,2-phenylene) bis(carbonate)], the “% pAMPK(at 10 nm)” value was determined as 139%.

As to `CCCO[C@@H]1Cc2ccc(O)cc2O[C@@H]1c1cccc(OC)c1` [Compound 1068, (2R,3R)-2-(3-methoxyphenyl)-3-propoxychroman-7-ol], the “% pAMPK(at 10 nm)” value turned out to be 90%.

For the compound `Cc1ccc([C@H]2Oc3cc(O)ccc3C[C@H]2O)cc1O` [Compound 1069, (2R,3R)-2-(3-hydroxy-4-methylphenyl)chromane-3,7-diol], the “% pAMPK(at 10 nm)” value was 110%.

In the case of `COc1ccc([C@H]2Oc3cc(OC)ccc3C[C@H]2O)cc1` [Compound 1070, (2R,3R)-7-methoxy-2-(4-methoxyphenyl)chroman-3-ol], the “% pAMPK(at 10 nm)” value is on record as 126%.

For the compound `O=C(O[C@@H]1Cc2c(O)cc(O)cc2O[C@@H]1c1ccc(O)c(O)c1)c1cccnc1` [Compound 1071, (2R,3R)-2-(3,4-dihydroxyphenyl)-5,7-dihydroxychroman-3-yl nicotinate], the “% pAMPK(at 10 nm)” value came out at 102%.

Turning to `CC(C)(C)COC(=O)Oc1ccc([C@H]2Oc3cc(O)cc(O)c3C[C@H]2O)cc1OC(=O)OCC(C)(C)C` [Compound 1072, dineopentyl (4-((2R,3R)-3,5,7-trihydroxychroman-2-yl)-1,2-phenylene) bis(carbonate)], the “% pAMPK(at 10 nm)” value is 99%.

In the case of `CC(C)(C)OC(=O)O[C@@H]1Cc2c(O)cc(O)cc2O[C@@H]1c1ccc(O)c(O)c1` [Compound 1073, tert-butyl ((2R,3R)-2-(3,4-dihydroxyphenyl)-5,7-dihydroxychroman-3-yl) carbonate], the “% pAMPK(at 10 nm)” value was 109%.
